# Assay results published in patent US20060069132A1, “Azolecarboxamide herbicides” (priority 2004, published 2006).
# Assays:
# [1] = test system: velvetleaf (ABUTH); test: Test J Compounds 2 and 6 alone and in combination with other herbicides, foliage spray; type: in vivo, Abutilon theophrasti; set-up: key: 0 = no effect, 100 = complete control; settings: applied alone
# Excerpt: Colby's Equation was used to calculate the expected additive herbicidal effect of the mixtures of Compound 6 with Harmony® Extra (i.e. a 2:1 mixture by weight of thifensulfuron-methyl and tribenuron-methyl). […]
# Seeds of test plants consisting of barnyardgrass (ECHCG; Echinochloa crus-galli (L.) Beauv.), blackgrass (ALOMY; Alopecurus myosuroides Huds.), Surinam grass (BRADC; Urochloa decumbens (Staph) R. D. Webster, previously named Brachiaria decumbens Stapf), cocklebur (XANST, Xanthium strumarium L.), corn (ZEAMD, Zea mays L. cv. ‘Pioneer 33G26’), large crabgrass (DIGSA, Digitaria sanguinalis (L.) Scop.), giant foxtail (SETFA, Setaria faberi Herrm.), lambsquarters (CHEAL, Chenopodium album L.), morningglory (IPOCO, Ipomoea coccinea L.), pigweed (AMARE, Amaranthus retroflexus L.), velvetleaf (ABUTH, Abutilon theophrasti Medik.) wheat (TRZAS, Triticum aestivum L. cv. ‘Recital’) and wild oat (AVEFA, Avena fatua L.) were planted in Redi-Earth® planting medium (Scotts Company, 14111 Scottslawn Road, Marysville, Ohio 43041) comprising spaghnum peat moss and vermiculite. […] Also listed in Table J are the expected effects for the mixtures calculated using Colby's Equation.
# [2] = test system: windgrass; test: Test F pre-/postemergence herbicide test; type: in vivo, Apera spica-venti
# Excerpt: (§1) Seeds of plant species selected from annual blugrass (Poa annua L.), blackgrass (Alopecurus myosuroides Huds.), catchweed bedstraw (Gallium aparine L.), common chickweed (Stellaria media (L.) Vill./Cyr.), downy bromegrass (Bromus tectorum L.), green foxtail (Setaria viridis (L.) Beauv.), Italian ryegrass (Lolium multiflorum Lam.), kochia (Kochia scoparia (L.). Schrad.), lambsquarters (Chenopodium album L.), littleseed canarygrass (Phalaris minor Retz.), pigweed (Amaranthus retroflexus L.), Russian thistle (Salsola kali L. ssp. Ruthenica (Iljin) Soo), wild buckwheat (Polygonum convolvulus L.), wild mustard (Sinapis arvensis L.), wild oat (Avena fatua L.), windgrass (Apera spica-venti (L.) Beauv.), winter barley (Hordeum vulgare L.), and wheat (Triticum aestivum L.) were planted and treated preemergence with test chemicals formulated in a non-phytotoxic solvent mixture which included a surfactant.
# (§2) At the same time, plants selected from these crop and weed species were treated with postemergence applications of some of the test chemicals formulated in the same manner. Plants ranged in height from 2 to 18 cm (1- to 4-leaf stage) for postemergence treatments. Treated plants and controls were maintained in a greenhouse for 12 to 14 days, after which time all species were compared to controls and visually evaluated. Plant response ratings, summarized in Table F, are based on a scale of 0 to 100 where 0 is no effect and 100 is complete control. A dash (-) response means no test result.
# [3] = test system: downy bromegrass; test: Test F pre-/postemergence herbicide test; type: in vivo, Bromus tectorum
# Excerpt: as §1, §2
# [4] = test system: green foxtail; test: Test F pre-/postemergence herbicide test; type: in vivo, Setaria viridis
# Excerpt: as §1, §2
smiles,measurement,setting,value
"CCn1nc(C(C)(C)C)cc1C(=O)Nc1cc(C(=O)N(C)C)ccc1F [Compound 6, N-[5-[(dimethylamino)carbonyl]-2-fluorophenyl]-3-(1,1-dimethylethyl)-1-ethyl-1H-pyrazole-5-carboxamide]",ABUTH Obsd.,[1]; 62 g a.i./ha,27
same,ABUTH Obsd.,[1]; 125 g a.i./ha,47
CCn1nc(C(C)(C)C)cc1C(=O)Nc1cc(C(=O)OC(C)C)c(F)cc1F [Compound 248],"Plant response rating (0-100), Windgrass","[2]; Postemergence, 31 g ai/ha",50
same,"Plant response rating (0-100), Windgrass","[2]; Postemergence, 62 g ai/ha",50
same,"Plant response rating (0-100), Windgrass","[2]; Postemergence, 125 g ai/ha",50
same,"Plant response rating (0-100), Windgrass","[2]; Postemergence, 250 g ai/ha",50
same,"Plant response rating (0-100), Windgrass","[2]; Preemergence, 31 g ai/ha",70
same,"Plant response rating (0-100), Windgrass","[2]; Preemergence, 62 g ai/ha",70
same,"Plant response rating (0-100), Windgrass","[2]; Preemergence, 125 g ai/ha",100
same,"Plant response rating (0-100), Windgrass","[2]; Preemergence, 250 g ai/ha",100
same,"Plant response rating (0-100), Bromegrass, Downy","[3]; Postemergence, 31 g ai/ha",40
same,"Plant response rating (0-100), Bromegrass, Downy","[3]; Postemergence, 62 g ai/ha",40
same,"Plant response rating (0-100), Bromegrass, Downy","[3]; Postemergence, 125 g ai/ha",40
same,"Plant response rating (0-100), Bromegrass, Downy","[3]; Postemergence, 250 g ai/ha",40
same,"Plant response rating (0-100), Bromegrass, Downy","[3]; Preemergence, 31 g ai/ha",35
same,"Plant response rating (0-100), Bromegrass, Downy","[3]; Preemergence, 62 g ai/ha",45
same,"Plant response rating (0-100), Bromegrass, Downy","[3]; Preemergence, 125 g ai/ha",50
same,"Plant response rating (0-100), Bromegrass, Downy","[3]; Preemergence, 250 g ai/ha",65
same,"Plant response rating (0-100), Foxtail, Green","[4]; Postemergence, 31 g ai/ha",50
same,"Plant response rating (0-100), Foxtail, Green","[4]; Postemergence, 62 g ai/ha",60
same,"Plant response rating (0-100), Foxtail, Green","[4]; Postemergence, 125 g ai/ha",60
same,"Plant response rating (0-100), Foxtail, Green","[4]; Postemergence, 250 g ai/ha",65
same,"Plant response rating (0-100), Foxtail, Green","[4]; Preemergence, 31 g ai/ha",65
same,"Plant response rating (0-100), Foxtail, Green","[4]; Preemergence, 62 g ai/ha",65
same,"Plant response rating (0-100), Foxtail, Green","[4]; Preemergence, 125 g ai/ha",100
same,"Plant response rating (0-100), Foxtail, Green","[4]; Preemergence, 250 g ai/ha",100
